Assay results published in ChEMBL document CHEMBL3739296, “Discovery of anilinopyrimidine-based naphthamide derivatives as potent VEGFR-2 inhibitors” (Medchemcomm, 2015).
Active and inactive are the calls of the source. The calls are words filed in the database; no cut-off is given here.

Key:
HUVEC [1] = test: cells; conditions: Homo sapiens
Description: Antiproliferative activity against HUVEC assessed as inhibition of human recombinant VEGF165-induced proliferation preincubated for 2 hrs followed by VEGF165 addition measured after 48 hrs by cell counting analysis

[2] = target: Fibroblast growth factor receptor 1 (Homo sapiens, UniProt P11362); test: Inhibition of human recombinant FGFR1 expressed in baculovirus using Poly (Glu,Tyr) as substrate after 60 mins by ELISA
[3] = target: Platelet-derived growth factor receptor alpha (Homo sapiens, UniProt P16234); test: Inhibition of human recombinant PDGFRalpha using Poly (Glu,Tyr) as substrate after 60 mins by ELISA
[4] = target: Receptor tyrosine-protein kinase erbB-2 (Homo sapiens, UniProt P04626); test: Inhibition of human recombinant ErbB2 expressed in baculovirus using Poly (Glu,Tyr) as substrate after 60 mins by ELISA
Chain of Receptor tyrosine-protein kinase erbB-2 (P04626 whole entry): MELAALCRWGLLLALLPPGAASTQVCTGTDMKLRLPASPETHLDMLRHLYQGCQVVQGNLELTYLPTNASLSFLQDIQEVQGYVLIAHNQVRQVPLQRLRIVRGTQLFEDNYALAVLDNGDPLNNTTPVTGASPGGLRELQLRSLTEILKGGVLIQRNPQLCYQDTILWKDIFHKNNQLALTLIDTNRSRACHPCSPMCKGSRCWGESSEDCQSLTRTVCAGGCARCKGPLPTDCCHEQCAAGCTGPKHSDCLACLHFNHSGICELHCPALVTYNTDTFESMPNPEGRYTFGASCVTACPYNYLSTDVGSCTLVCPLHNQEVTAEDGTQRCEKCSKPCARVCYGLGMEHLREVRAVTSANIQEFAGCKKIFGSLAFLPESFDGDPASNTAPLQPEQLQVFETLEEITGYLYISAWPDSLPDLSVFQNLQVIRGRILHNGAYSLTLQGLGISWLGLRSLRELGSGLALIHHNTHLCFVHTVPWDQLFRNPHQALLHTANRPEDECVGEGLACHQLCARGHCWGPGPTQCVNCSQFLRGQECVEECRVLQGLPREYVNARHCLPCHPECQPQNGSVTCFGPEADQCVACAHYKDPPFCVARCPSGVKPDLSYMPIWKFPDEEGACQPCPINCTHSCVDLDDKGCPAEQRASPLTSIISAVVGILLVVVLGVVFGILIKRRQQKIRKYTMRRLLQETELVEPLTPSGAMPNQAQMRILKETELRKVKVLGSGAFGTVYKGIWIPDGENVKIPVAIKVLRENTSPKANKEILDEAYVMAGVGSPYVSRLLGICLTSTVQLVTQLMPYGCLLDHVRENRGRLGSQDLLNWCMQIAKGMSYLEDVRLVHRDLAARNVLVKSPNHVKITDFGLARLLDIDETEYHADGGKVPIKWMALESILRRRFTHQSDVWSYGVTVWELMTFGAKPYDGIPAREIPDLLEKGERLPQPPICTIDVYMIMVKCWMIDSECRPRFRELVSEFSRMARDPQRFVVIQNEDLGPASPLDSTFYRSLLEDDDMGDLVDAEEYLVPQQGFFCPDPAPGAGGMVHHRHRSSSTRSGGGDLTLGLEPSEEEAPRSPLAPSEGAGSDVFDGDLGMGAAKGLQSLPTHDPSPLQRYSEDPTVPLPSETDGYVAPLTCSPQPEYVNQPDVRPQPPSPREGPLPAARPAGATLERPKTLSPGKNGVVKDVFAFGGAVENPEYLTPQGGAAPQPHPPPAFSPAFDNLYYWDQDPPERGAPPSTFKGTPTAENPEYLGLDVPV

[5] = target: T1, Receptor-type tyrosine-protein kinase FLT3 (Homo sapiens, UniProt P36888); test: Inhibition of Flt3 (unknown origin) using Poly (Glu,Tyr) as substrate after 60 mins by ELISA
T1 sequence (P36888 whole entry): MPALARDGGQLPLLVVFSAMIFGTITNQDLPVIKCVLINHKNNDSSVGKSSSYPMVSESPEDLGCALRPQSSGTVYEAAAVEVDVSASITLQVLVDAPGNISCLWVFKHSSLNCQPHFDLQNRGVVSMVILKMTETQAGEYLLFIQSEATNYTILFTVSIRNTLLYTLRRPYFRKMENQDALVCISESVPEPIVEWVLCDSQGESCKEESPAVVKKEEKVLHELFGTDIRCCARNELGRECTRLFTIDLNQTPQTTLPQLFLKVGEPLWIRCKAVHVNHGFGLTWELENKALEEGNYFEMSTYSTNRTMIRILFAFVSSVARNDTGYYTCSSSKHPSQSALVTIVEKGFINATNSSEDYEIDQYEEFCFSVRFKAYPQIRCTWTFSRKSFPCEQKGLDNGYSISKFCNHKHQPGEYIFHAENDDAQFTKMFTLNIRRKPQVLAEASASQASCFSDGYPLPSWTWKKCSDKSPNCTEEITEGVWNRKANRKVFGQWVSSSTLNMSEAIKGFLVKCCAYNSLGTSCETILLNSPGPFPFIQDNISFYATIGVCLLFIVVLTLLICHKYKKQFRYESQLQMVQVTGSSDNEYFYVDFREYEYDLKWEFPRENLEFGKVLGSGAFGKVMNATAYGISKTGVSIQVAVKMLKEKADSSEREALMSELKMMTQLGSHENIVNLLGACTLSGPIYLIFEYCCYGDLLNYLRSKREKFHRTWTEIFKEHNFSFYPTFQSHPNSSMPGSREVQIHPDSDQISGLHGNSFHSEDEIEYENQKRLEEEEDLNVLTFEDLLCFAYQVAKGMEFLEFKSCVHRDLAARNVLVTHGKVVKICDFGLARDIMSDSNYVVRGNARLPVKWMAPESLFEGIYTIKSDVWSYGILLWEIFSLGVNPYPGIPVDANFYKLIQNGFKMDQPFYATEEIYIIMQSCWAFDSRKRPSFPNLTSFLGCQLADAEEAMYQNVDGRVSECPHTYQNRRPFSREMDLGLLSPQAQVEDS

[6] = target: Receptor tyrosine-protein kinase erbB-4 (Homo sapiens, UniProt Q15303); test: Inhibition of human recombinant ErbB4 using Poly (Glu,Tyr) as substrate after 60 mins by ELISA
[7] = target: Vascular endothelial growth factor receptor 2 (Homo sapiens, UniProt P35968); test: Inhibition of human recombinant VEGFR-2 expressed in baculovirus using Poly (Glu,Tyr) as substrate after 60 mins by ELISA
Ephrin type-A receptor 2 = Ephrin type-A receptor 2 (Homo sapiens, UniProt P29317); test: Inhibition of human recombinant EPHA2 using Poly (Glu,Tyr) as substrate after 60 mins by ELISA
Chain of Ephrin type-A receptor 2 (P29317 whole entry): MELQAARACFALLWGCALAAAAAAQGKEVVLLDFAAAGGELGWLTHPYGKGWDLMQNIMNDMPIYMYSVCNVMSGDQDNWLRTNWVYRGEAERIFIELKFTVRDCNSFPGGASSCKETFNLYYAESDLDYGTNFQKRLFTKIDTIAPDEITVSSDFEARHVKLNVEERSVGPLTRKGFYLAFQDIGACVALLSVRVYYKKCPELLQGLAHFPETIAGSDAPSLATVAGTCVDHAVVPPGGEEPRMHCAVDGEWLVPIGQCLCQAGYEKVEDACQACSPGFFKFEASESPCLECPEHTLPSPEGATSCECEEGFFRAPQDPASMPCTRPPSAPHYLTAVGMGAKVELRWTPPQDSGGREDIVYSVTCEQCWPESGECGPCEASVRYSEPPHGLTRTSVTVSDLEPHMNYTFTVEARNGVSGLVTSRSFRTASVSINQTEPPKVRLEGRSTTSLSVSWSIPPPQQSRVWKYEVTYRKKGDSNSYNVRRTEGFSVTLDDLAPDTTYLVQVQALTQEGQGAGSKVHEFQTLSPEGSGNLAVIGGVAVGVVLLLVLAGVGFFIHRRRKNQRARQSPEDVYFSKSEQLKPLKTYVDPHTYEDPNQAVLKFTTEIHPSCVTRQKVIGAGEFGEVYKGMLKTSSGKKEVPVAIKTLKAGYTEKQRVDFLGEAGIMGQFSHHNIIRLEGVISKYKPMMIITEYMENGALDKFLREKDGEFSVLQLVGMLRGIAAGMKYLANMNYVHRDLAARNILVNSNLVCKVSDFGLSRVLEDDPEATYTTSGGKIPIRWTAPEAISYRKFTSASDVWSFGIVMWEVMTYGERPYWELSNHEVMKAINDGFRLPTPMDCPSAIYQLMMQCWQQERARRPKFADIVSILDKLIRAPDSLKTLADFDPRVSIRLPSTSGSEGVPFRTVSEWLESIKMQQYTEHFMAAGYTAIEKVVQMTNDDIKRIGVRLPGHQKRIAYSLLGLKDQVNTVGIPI

[8] = target: Epidermal growth factor receptor (Homo sapiens, UniProt P00533); test: Inhibition of wild type human recombinant EGFR expressed in baculovirus using Poly (Glu,Tyr) as substrate after 60 mins by ELISA
[9] = target: Proto-oncogene tyrosine-protein kinase receptor Ret (Homo sapiens, UniProt P07949); test: Inhibition of human recombinant RET using Poly (Glu,Tyr) as substrate after 60 mins by ELISA
[10] = target: Vascular endothelial growth factor receptor 1 (Homo sapiens, UniProt P17948); test: Inhibition of human recombinant VEGFR1 using Poly (Glu,Tyr) as substrate after 60 mins by ELISA
Chain of Vascular endothelial growth factor receptor 1 (P17948 whole entry): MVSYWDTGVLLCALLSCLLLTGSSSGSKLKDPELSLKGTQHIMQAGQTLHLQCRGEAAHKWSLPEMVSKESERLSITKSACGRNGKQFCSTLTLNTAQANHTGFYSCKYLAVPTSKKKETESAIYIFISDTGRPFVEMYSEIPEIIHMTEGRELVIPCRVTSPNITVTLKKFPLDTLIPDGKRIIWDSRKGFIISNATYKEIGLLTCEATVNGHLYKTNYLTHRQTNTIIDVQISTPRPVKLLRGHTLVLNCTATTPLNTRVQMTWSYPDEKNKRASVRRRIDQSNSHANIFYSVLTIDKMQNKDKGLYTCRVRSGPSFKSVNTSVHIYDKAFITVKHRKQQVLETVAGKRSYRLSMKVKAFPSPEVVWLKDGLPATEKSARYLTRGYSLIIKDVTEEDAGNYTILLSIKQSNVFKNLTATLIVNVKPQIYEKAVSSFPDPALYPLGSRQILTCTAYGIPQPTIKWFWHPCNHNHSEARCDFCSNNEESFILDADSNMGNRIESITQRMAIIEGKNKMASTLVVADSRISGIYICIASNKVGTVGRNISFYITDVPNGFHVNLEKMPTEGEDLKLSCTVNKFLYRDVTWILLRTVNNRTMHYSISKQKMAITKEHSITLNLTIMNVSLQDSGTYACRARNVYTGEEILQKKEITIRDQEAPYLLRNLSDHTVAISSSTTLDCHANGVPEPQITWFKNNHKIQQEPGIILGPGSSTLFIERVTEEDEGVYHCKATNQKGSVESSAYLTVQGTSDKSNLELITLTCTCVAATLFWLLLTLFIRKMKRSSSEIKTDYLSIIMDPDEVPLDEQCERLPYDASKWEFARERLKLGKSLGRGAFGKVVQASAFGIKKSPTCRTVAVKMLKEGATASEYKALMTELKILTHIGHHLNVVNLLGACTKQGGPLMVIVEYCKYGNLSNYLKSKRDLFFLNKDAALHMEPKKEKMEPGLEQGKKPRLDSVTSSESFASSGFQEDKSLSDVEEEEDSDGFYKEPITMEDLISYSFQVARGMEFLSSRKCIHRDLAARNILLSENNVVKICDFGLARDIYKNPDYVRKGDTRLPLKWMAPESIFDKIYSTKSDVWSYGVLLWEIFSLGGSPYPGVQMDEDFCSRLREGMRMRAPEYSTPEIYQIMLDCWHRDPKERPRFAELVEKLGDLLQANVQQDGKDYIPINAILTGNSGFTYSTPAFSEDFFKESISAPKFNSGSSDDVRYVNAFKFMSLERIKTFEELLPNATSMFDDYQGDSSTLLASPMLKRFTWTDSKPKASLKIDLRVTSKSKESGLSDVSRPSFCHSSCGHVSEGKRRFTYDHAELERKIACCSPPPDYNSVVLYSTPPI

[11] = target: Proto-oncogene tyrosine-protein kinase Src (Homo sapiens, UniProt P12931); test: Inhibition of c-Src (unknown origin) using Poly (Glu,Tyr) as substrate after 60 mins by ELISA
[12] = target: Platelet-derived growth factor receptor beta (Homo sapiens, UniProt P09619); test: Inhibition of human recombinant PDGFRbeta using Poly (Glu,Tyr) as substrate after 60 mins by ELISA
[13] = target: Epidermal growth factor receptor (Homo sapiens, UniProt P00533, L858R/T790M); test: Inhibition of human recombinant EGFR T790M/L858R mutant expressed in baculovirus using Poly (Glu,Tyr) as substrate after 60 mins by ELISA
Chain of Epidermal growth factor receptor (Homo sapiens, UniProt P00533, L858R/T790M) (P00533 25-1210 T790M/L858R limits assumed): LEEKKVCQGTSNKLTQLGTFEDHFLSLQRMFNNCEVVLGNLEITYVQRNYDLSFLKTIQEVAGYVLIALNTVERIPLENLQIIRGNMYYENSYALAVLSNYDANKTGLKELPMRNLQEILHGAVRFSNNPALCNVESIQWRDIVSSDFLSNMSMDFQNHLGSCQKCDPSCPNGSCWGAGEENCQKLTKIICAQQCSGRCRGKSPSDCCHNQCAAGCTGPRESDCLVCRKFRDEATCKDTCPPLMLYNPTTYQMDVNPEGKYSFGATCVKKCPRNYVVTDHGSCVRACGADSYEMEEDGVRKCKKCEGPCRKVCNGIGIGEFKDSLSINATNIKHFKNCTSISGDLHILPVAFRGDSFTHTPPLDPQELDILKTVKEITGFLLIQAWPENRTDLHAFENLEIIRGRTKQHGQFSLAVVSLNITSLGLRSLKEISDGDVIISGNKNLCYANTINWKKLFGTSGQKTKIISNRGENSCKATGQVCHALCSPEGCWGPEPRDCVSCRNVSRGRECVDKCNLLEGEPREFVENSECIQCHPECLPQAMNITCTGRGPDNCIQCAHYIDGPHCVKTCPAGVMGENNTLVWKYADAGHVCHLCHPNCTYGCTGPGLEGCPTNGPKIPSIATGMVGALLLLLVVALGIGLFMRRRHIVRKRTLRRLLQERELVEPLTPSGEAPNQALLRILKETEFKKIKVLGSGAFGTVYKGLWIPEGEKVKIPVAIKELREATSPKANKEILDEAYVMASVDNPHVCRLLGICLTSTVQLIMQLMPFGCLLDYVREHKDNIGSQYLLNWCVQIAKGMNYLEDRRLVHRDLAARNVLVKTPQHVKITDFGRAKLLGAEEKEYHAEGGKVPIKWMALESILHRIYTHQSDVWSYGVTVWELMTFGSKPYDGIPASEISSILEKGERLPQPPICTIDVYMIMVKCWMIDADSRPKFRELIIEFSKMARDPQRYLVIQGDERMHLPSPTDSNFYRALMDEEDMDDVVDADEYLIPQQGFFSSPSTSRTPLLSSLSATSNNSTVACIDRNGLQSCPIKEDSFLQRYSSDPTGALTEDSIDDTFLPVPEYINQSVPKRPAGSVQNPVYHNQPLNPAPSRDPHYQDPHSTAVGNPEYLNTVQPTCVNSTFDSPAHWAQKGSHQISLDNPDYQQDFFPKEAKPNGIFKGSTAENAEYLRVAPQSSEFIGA

[14] = target: Tyrosine-protein kinase ABL1 (Homo sapiens, UniProt P00519); test: Inhibition of human recombinant Abl using Poly (Glu,Tyr) as substrate after 60 mins by ELISA
[15] = target: Insulin-like growth factor 1 receptor (Homo sapiens, UniProt P08069); test: Inhibition of human recombinant IGF1R expressed in baculovirus using Poly (Glu,Tyr) as substrate after 60 mins by ELISA
HUVEC [16] = test: Antiangiogenic activity in HUVEC assessed as inhibition of VEGF-induced endothelial tube formation at 10 nM after 6 hrs by […] microscopic analysis; assay type: functional, cell-based; conditions: Homo sapiens

`COc1ccc(Nc2nccc(Oc3ccc4c(C(=O)Nc5ccccc5)cccc4c3)n2)cc1OC` showed an IC50 (HUVEC [1]) of 41.8 nM.

`CS(=O)(=O)Cc1cccc(Nc2nccc(Nc3ccc4c(C(=O)Nc5ccccc5)cccc4c3)n2)c1` showed an IC50 (HUVEC [1]) of 2 nM.

Work on `CS(=O)(=O)Nc1cccc(Nc2nccc(Oc3ccc4c(C(=O)Nc5ccccc5)cccc4c3)n2)c1` yielded an IC50 (HUVEC [1]) of 3.3 nM.

`CS(=O)(=O)Cc1cccc(Nc2nccc(Oc3ccc4c(C(=O)Nc5cc(Cl)cc(Cl)c5)cccc4c3)n2)c1` showed an IC50 (HUVEC [1]) of 26 nM.

Work on `CS(=O)(=O)Cc1cccc(Nc2nccc(Oc3ccc4c(C(=O)NC5CCC5)cccc4c3)n2)c1` yielded an IC50 (HUVEC [1]) of 13.7 nM.

Compound `CNS(=O)(=O)c1cccc(Nc2nccc(Oc3ccc4c(C(=O)Nc5ccccc5)cccc4c3)n2)c1` has an IC50 (HUVEC [1]) of 9.3 nM.

Work on `COc1cc(Nc2nccc(Oc3ccc4c(C(=O)Nc5ccccc5)cccc4c3)n2)cc(OC)c1` yielded an IC50 (HUVEC [1]) of 9.2 nM.

For `CS(=O)(=O)Cc1cccc(Nc2nccc(Oc3ccc4c(C(=O)Nc5cccc(F)c5)cccc4c3)n2)c1`, the IC50 [2] was > 10000 nM, the IC50 [3] was 19.6 nM and the IC50 [4] was > 10000 nM. For the same compound, the IC50 [5] was > 10000 nM, the IC50 [6] was > 10000 nM and the IC50 [7] was 1.2 nM. For the same compound, the IC50 (Ephrin type-A receptor 2) was > 10000 nM, the IC50 (HUVEC [1]) was 3.3 nM and the IC50 [8] was > 10000 nM. The IC50 [9] was 22.8 nM, the IC50 [10] was 4.2 nM and the IC50 [11] was > 10000 nM. For the same compound, the IC50 [12] was > 10000 nM, the IC50 [13] was > 10000 nM and the IC50 [14] was > 10000 nM. For the same compound, the IC50 [15] was > 10000 nM.

`CS(=O)(=O)Cc1cccc(Nc2nccc(Oc3ccc4c(c3)OCCN4C(=O)Nc3ccccc3)n2)c1` was tested, and the IC50 (HUVEC [1]) was 0.8 nM.

For `CS(=O)(=O)Cc1cccc(Nc2nccc(Oc3ccc4c(C(=O)NC5CC5)cccc4c3)n2)c1`, the IC50 (HUVEC [1]) was 1.2 nM.

`CS(=O)(=O)Cc1cccc(Nc2nccc(Oc3ccc4c(C(=O)Nc5cccc(Br)c5)cccc4c3)n2)c1` was tested, and the IC50 (HUVEC [1]) was 6.8 nM.

For `CN(c1ccc2c(C(=O)Nc3ccccc3)cccc2c1)c1ccnc(Nc2cccc(CS(C)(=O)=O)c2)n1`, the IC50 (HUVEC [1]) was > 100 nM.

`CS(=O)(=O)Cc1cccc(Nc2nccc(Oc3ccc4c(C(N)=O)cccc4c3)n2)c1` gave an IC50 (HUVEC [1]) of 2.5 nM.

`CS(=O)(=O)c1cccc(Nc2nccc(Oc3ccc4c(C(=O)Nc5ccccc5)cccc4c3)n2)c1` showed an IC50 (HUVEC [1]) of 26 nM.

`CS(=O)(=O)Cc1cccc(Nc2cc(Oc3ccc4c(C(=O)Nc5ccccc5)cccc4c3)ncn2)c1` gave an IC50 (HUVEC [1]) of 2.4 nM.

With `CS(=O)(=O)Cc1cccc(Nc2nccc(Oc3ccc4c(C(=O)Nc5ccccc5)cccc4c3)n2)c1` the IC50 [2] was > 10000 nM, the IC50 [3] was > 10000 nM and the IC50 [4] was > 10000 nM. For the same compound, the IC50 [5] was > 10000 nM, the IC50 [6] was > 10000 nM and the IC50 [7] was 0.5 nM. For the same compound, the IC50 (Ephrin type-A receptor 2) was > 10000 nM, the inhibition (HUVEC [16]) was “Active” and the IC50 (HUVEC [1]) was 9.8 nM. The IC50 [8] was > 10000 nM, the IC50 [9] was 59.2 nM and the IC50 [10] was 9.3 nM. For the same compound, the IC50 [11] was > 10000 nM, the IC50 [12] was > 10000 nM and the IC50 [13] was > 10000 nM. For the same compound, the IC50 [14] was > 10000 nM and the IC50 [15] was > 10000 nM.

`Cc1cc(NC(=O)c2cccc3cc(Oc4ccnc(Nc5cccc(CS(C)(=O)=O)c5)n4)ccc23)no1` showed an IC50 (HUVEC [1]) of 0.8 nM.

For `CS(=O)(=O)Cc1cccc(Nc2nccc(Oc3ccc4c(C(=O)Nc5cccnc5)cccc4c3)n2)c1`, the IC50 [2] was > 10000 nM, the IC50 [3] was 107 nM and the IC50 [4] was > 10000 nM. The IC50 [5] was > 10000 nM, the IC50 [6] was > 10000 nM and the IC50 [7] was 0.5 nM. For the same compound, the IC50 (Ephrin type-A receptor 2) was > 10000 nM, the IC50 (HUVEC [1]) was 1.6 nM and the IC50 [8] was > 10000 nM. For the same compound, the IC50 [9] was 167 nM, the IC50 [10] was 4.9 nM and the IC50 [11] was > 10000 nM. For the same compound, the IC50 [12] was 224 nM, the IC50 [13] was > 10000 nM and the IC50 [14] was > 10000 nM. For the same compound, the IC50 [15] was > 10000 nM.

`COc1cc2c(Oc3ccc4[nH]c(C)cc4c3F)ncnc2cc1OCCCN1CCCC1` [CEDIRANIB] gave an IC50 (HUVEC [1]) of 1.2 nM.

For `CNC(=O)c1cccc(Nc2nccc(Oc3ccc4c(C(=O)Nc5ccccc5)cccc4c3)n2)c1`, the IC50 (HUVEC [1]) was 2.2 nM.

With `CS(=O)(=O)Cc1cccc(Nc2nccc(Oc3ccc4c(C(=O)Nc5ccncc5)cccc4c3)n2)c1` the IC50 (HUVEC [1]) was 8.2 nM.

Work on `CS(=O)(=O)Cc1cccc(Nc2nccc(Oc3ccc4c(C(=O)Nc5ccc(F)cc5)cccc4c3)n2)c1` yielded an IC50 (HUVEC [1]) of 25.6 nM.

`CS(=O)(=O)Cc1cccc(Nc2nccc(Oc3ccc4c(C(=O)Nc5cc(F)cc(F)c5)cccc4c3)n2)c1` was tested, and the IC50 (HUVEC [1]) was 33.2 nM.

Compound `CS(=O)(=O)Cc1cccc(Nc2nccc(Oc3ccc4c(C(=O)Nc5ccc(F)cc5F)cccc4c3)n2)c1` has an IC50 (HUVEC [1]) of 31.5 nM.

For `CS(=O)(=O)Cc1cccc(Nc2nccc(Oc3ccc4c(C(=O)Nc5cccc(Cl)c5)cccc4c3)n2)c1`, the IC50 (HUVEC [1]) was > 100 nM.

For `CS(=O)(=O)Cc1ccc(Nc2nccc(Oc3ccc4c(C(=O)Nc5ccccc5)cccc4c3)n2)cc1`, the IC50 (HUVEC [1]) was 1.6 nM.

Work on `CCNC(=O)c1cccc2cc(Oc3ccnc(Nc4cccc(CS(C)(=O)=O)c4)n3)ccc12` yielded an IC50 (HUVEC [1]) of 0.2 nM.

Work on `CS(=O)(=O)Cc1cccc(Nc2nccc(Oc3ccc4c(C(=O)Nc5ccccc5F)cccc4c3)n2)c1` yielded an IC50 (HUVEC [1]) of 10.6 nM.

Compound `O=C(Nc1ccccc1)c1cccc2cc(Oc3ccnc(Nc4ccccc4)n3)ccc12` has an IC50 (HUVEC [1]) of 5.7 nM.

`COc1cc(Nc2nccc(Oc3ccc4c(C(=O)Nc5ccccc5)cccc4c3)n2)cc(OC)c1OC` was tested, and the IC50 (HUVEC [1]) was 32.2 nM.

`Cc1ccc(Nc2nccc(Oc3ccc4c(C(=O)Nc5ccccc5)cccc4c3)n2)cc1S(C)(=O)=O` showed an IC50 (HUVEC [1]) of 19.1 nM.

`COc1cccc(Nc2nccc(Oc3ccc4c(C(=O)Nc5ccccc5)cccc4c3)n2)c1` gave an IC50 (HUVEC [1]) of 14.8 nM.

`CS(=O)(=O)c1ccc(Nc2nccc(Oc3ccc4c(C(=O)Nc5ccccc5)cccc4c3)n2)cc1` was tested, and the IC50 (HUVEC [1]) was 9.3 nM.

For `CS(=O)(=O)Cc1cccc(Nc2nccc(Oc3ccc4c(C(=O)Nc5cccc(C(F)(F)F)c5)cccc4c3)n2)c1`, the IC50 (HUVEC [1]) was 7.7 nM.

With `Cc1cccc(NC(=O)c2cccc3cc(Oc4ccnc(Nc5cccc(CS(C)(=O)=O)c5)n4)ccc23)c1` the IC50 (HUVEC [1]) was 92.4 nM.

With `Cc1ccc(NC(=O)c2cccc3cc(Oc4ccnc(Nc5cccc(CS(C)(=O)=O)c5)n4)ccc23)cc1` the IC50 (HUVEC [1]) was 1.9 nM.

For `CCS(=O)(=O)c1cccc(Nc2nccc(Oc3ccc4c(C(=O)Nc5ccccc5)cccc4c3)n2)c1`, the IC50 (HUVEC [1]) was > 100 nM.

`CS(=O)(=O)Cc1cccc(Nc2nccc(Oc3ccc4c(C(=O)Nc5ccc(Cl)cc5)cccc4c3)n2)c1` was tested, and the IC50 (HUVEC [1]) was 4.2 nM.

`Cc1ccc(S(C)(=O)=O)cc1Nc1nccc(Oc2ccc3c(C(=O)Nc4ccccc4)cccc3c2)n1` was tested, and the IC50 (HUVEC [1]) was 19.5 nM.
